{"source": "patent US20070254906A1", "about": "(DarPharma, Inc., priority 2004, published 2007)", "key": {"[1]": {"tested_on": "rabbit model of lung injury", "assay": "Fluid resorption in rabbit model of lung injury", "assay_type": "in vivo", "conditions": "intravenous route"}, "[2]": {"tested_on": "dopamine release and reuptake", "assay": "Dopamine release and reuptake"}, "[3]": {"biological_target": "40 binding sites (other than the D1 site)", "assay": "Screen at about 40 receptor binding sites", "conditions": "inactive at all except D2 and alpha2"}, "[4]": {"tested_on": "adenylate cyclase", "assay": "Stimulation of adenylate cyclase by dihydrexidine", "conditions": "for efficacy in stimulating adenylate cyclase: compared with dopamine, rat, monkey, and human brain tissue, hydrochloride"}, "[5]": {"assay": "Half-life, duration of action and oral absorption", "assay_type": "in vivo", "conditions": "for half-life: intravenous, read-out: half-life when given intravenously"}, "[6]": {"tested_on": "injured rat lung", "assay": "Fluid resorption in rat model of lung injury", "assay_type": "in vivo", "conditions": "intravenous administration, listed as DHX, hydrochloride"}, "[7]": {"biological_target": "alpha2 adrenergic receptors", "conditions": "Mottola et al. (1992); cited from earlier work"}, "[8]": {"biological_target": "alpha2 adrenergic receptors", "assay": "Binding at alpha2 adrenergic receptors (screen)", "conditions": "Method Example 2 text"}, "[9]": {"biological_target": "40 binding sites (other than the D1 site)", "conditions": "inactive; Mottola et al. (1992); read-out: IC50 at about 40 different receptor binding sites; cited from earlier work"}, "[10]": {"biological_target": "dopamine D1 receptor", "conditions": "read-out: IC50, binding to dopamine D1 receptor; Mottola et al. (1992); cited from earlier work"}, "[11]": {"biological_target": "T1, D2 receptors (Rattus norvegicus, UniProt P61169)", "T1 construct": "other: rat brain striatal homogenates, 3H-spiperone", "T1 sequence (P61169 whole entry)": "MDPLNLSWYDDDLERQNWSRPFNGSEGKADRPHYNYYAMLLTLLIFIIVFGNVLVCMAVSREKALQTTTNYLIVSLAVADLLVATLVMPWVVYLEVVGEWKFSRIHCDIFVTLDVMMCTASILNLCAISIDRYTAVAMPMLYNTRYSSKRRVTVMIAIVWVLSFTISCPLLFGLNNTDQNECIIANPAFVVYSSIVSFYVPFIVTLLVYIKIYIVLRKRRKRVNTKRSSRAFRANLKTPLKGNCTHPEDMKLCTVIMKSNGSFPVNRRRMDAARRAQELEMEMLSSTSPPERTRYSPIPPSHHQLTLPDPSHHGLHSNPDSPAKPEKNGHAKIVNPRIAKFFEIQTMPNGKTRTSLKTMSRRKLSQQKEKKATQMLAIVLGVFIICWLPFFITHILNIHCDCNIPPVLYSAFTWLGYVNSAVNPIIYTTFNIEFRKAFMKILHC", "assay_type": "binding", "conditions": "rat brain striatal homogenates, 3H-spiperone; read-out: D2 Affinity (K0.5) ± SEM"}, "[12]": {"tested_on": "D1 receptors", "assay": "Binding affinity at rat brain striatal D1 receptors (3H-SCH 23390)", "conditions": "for D1:D2 Selectivity: rat brain striatal homogenates"}, "[13]": {"biological_target": "D1 receptors (Rattus norvegicus, UniProt P18901)", "sequence (P18901 whole entry)": "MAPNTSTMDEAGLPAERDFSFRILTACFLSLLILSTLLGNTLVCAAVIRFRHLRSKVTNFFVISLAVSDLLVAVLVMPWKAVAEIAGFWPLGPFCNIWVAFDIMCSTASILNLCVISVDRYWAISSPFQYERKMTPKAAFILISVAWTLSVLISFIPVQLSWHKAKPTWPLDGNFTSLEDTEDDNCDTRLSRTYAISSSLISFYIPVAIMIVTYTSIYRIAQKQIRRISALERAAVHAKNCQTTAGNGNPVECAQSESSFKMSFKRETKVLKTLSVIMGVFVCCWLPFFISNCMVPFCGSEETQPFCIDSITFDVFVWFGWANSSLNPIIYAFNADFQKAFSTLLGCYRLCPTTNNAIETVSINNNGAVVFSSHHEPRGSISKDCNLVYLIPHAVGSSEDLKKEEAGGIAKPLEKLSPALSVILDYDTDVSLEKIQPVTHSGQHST", "assay": "Binding affinity at rat brain striatal D1 receptors (3H-SCH 23390)", "conditions": "read-out: D1 Affinity (K0.5) ± SEM; rat brain striatal homogenates, 3H-SCH 23390"}, "[14]": {"tested_on": "D2 receptors", "assay_type": "binding, rat"}, "[15]": {"tested_on": "alveolar fluid resorption", "conditions": "isolated, perfused rat lungs; cited from earlier work"}, "[16]": {"conditions": "background statement; cited from earlier work"}, "[17]": {"biological_target": "D1 receptor (Homo sapiens, UniProt P21728)", "sequence (P21728 whole entry)": "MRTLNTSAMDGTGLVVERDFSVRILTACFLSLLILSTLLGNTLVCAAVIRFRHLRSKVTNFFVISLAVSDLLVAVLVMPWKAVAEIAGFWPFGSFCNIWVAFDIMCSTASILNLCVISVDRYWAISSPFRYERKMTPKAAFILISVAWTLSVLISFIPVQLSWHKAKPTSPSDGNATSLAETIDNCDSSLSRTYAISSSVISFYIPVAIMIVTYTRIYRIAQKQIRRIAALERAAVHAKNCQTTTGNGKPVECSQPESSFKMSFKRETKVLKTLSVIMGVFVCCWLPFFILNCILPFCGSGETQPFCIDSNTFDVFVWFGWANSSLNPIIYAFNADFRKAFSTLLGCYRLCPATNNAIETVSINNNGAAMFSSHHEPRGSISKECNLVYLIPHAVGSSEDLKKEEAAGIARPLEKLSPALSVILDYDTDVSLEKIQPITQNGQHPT", "assay": "Alveolar fluid resorption in transgenic mice overexpressing the D1 receptor", "conditions": "mice with D1 receptor overexpressed by electroporation"}, "[18]": {"tested_on": "adenylate cyclase", "assay": "Activation of adenylate cyclase in rat brain striatum", "assay_type": "biochemical", "conditions": "compared with dopamine"}, "[19]": {"tested_on": "lung liquid clearance", "conditions": "cited from earlier work"}}, "note": "Entries after “also recorded” stand apart in the source; their conditions may differ. Where a name gives a salt, the structure may show the parent alone. Read-outs that look alike come from different tables or passages of the source."}
{"smiles": "Oc1cc2c(cc1O)[C@H]1c3ccccc3CN[C@@H]1CC2", "note": "(racemic) [dihydrexidine, Trans-10,11-dihydroxy-5,6,6a,7,8,12b-hexahydrobenzo[α]phenanthridine hydrochloride]", "values": [{"measurement": "fluid resorption in lung injury model", "setting": "[1]", "value": "shown to induce fluid resorption"}, {"measurement": "releasing dopamine or blocking its reuptake", "setting": "[2]", "value": "inactive"}, {"measurement": "IC50", "setting": "[3]", "value": "> 10000", "unit": "nM"}, {"measurement": "efficacy in stimulating adenylate cyclase", "setting": "[4]", "value": "full efficacy"}, {"measurement": "efficacy in stimulating adenylate cyclase", "setting": "[4]; listed as DHX", "value": "as efficacious as dopamine"}, {"measurement": "half-life", "setting": "[5]; in vivo", "value": "~30", "unit": "min"}, {"measurement": "oral absorption / oral bioavailability", "setting": "[5]; oral administration, listed as DHX, hydrochloride", "value": "relatively poor; also recorded: poorly absorbed"}, {"measurement": "half-life", "setting": "[5]; serum", "value": "< 10", "unit": "min"}, {"measurement": "functional half-life when given subcutaneously", "setting": "[5]; subcutaneous", "value": "about 3 hr"}, {"measurement": "fluid absorption / resorption from injured lung", "setting": "[6]", "value": "shown efficacy; also recorded: shown to induce fluid resorption"}, {"measurement": "IC50", "setting": "[7]", "value": 230, "unit": "nM"}, {"measurement": "IC50", "setting": "[8]", "value": "~230", "unit": "nM"}, {"measurement": "IC50", "setting": "[9]", "value": "> 10000", "unit": "nM"}, {"measurement": "IC50", "setting": "[10]", "value": "~10", "unit": "nM"}]}
{"smiles": "Cl.Oc1cc2c(cc1O)[C@@H]1c3cc(Cc4ccccc4)ccc3CN[C@H]1CC2", "note": "(relative stereo) [Compound 6e, Trans-2-benzyl-10,11-dihydroxy-5,6,6a,7,8,12b-hexahydrobenzo[α]phenanthridine hydrochloride]", "values": [{"measurement": "Ki", "setting": "[11]", "value": 185, "unit": "nM"}, {"measurement": "D1:D2 Selectivity", "setting": "[12]", "value": 0.6}, {"measurement": "Ki", "setting": "[13]", "value": 290, "unit": "nM"}]}
{"smiles": "Cc1ccc2c(c1)CN[C@H]1CCc3cc(O)c(O)cc3[C@H]21", "note": "(relative stereo) [Compound 6c, Trans-3-methyl-10,11-dihydroxy-5,6,6a,7,8, 12b-hexahydrobenzo[α]phenanthridine hydrochloride]", "values": [{"measurement": "D2 potency relative to dihydrexidine", "setting": "[14]", "value": "greater D2 potency"}, {"measurement": "D1 potency and efficacy relative to dihydrexidine", "setting": "[12]", "value": "comparable to dihydrexidine"}, {"measurement": "D1:D2 Selectivity", "setting": "[12]", "value": 6}]}
{"smiles": "CCN1CCCC1CNC(=O)c1cc(S(N)(=O)=O)ccc1OC", "note": "(centres unmarked) [sulpiride]", "values": [{"measurement": "blockade of the dopamine effect on alveolar fluid resorption", "setting": "[15]", "value": "not"}]}
{"smiles": "Oc1ccc(C2CNCCc3c2cc(O)c(O)c3Cl)cc1", "note": "(centres unmarked) [fenoldopam]", "values": [{"measurement": "half-life", "setting": "[16]", "value": "about 15 minutes"}]}
{"smiles": "CN1CCc2cc(Cl)c(O)cc2C(c2ccccc2)C1", "note": "(centres unmarked) [SCH 23390]", "values": [{"measurement": "blockade of the increase in alveolar fluid resorption", "setting": "[17]", "value": "blocked"}, {"measurement": "blockade of dihydrexidine stimulation of adenylate cyclase", "setting": "[4]; D1 antagonist", "value": "blocked"}, {"measurement": "blockade of the dopamine effect on alveolar fluid resorption", "setting": "[15]", "value": "blocked"}]}
{"smiles": "Oc1ccc2c(c1O)Cc1cccc3c1C2CNC3", "note": "(centres unmarked) [dinapsoline, 8,9-Dihydroxy-2,3,7,11b-tetrahydro-1H-napth[1,2,3-de]isoquinoline]", "values": [{"measurement": "efficacy in activating adenylate cyclase in rat brain striatum", "setting": "[18]", "value": "as effective as dopamine"}]}
{"smiles": "Oc1ccc2c(c1O)Cc1cccc3c1C2CNC3", "note": "(centres unmarked) (as salt: hydrobromid) [dinapsoline, 8,9-Dihydroxy-2,3,7,11b-tetrahydro-1H-napth[1,2,3-de]isoquinoline]", "values": [{"measurement": "melting point", "value": "258 °C (dec.)"}]}
{"smiles": "NCCc1ccc(O)c(O)c1", "note": "[dopamine]", "values": [{"measurement": "increase in lung liquid clearance", "setting": "[19]; dopamine instilled at 10-5", "value": 131, "unit": "%"}, {"measurement": "increase in lung liquid clearance", "setting": "[19]; dopamine instilled at 10-6", "value": 47, "unit": "%"}, {"measurement": "increase in lung liquid clearance", "setting": "[19]; dopamine instilled at 10-8", "value": 27, "unit": "%"}, {"measurement": "increase in alveolar fluid resorption", "setting": "[15]", "value": 98, "unit": "%"}]}
{"smiles": "Cc1ccc2c(c1)[C@H]1c3cc(O)c(O)cc3CC[C@@H]1NC2", "note": "(relative stereo) (as salt: hydrochloride) [Compound 6b, Trans-2-methyl-10,11-dihydroxy-5,6,6a,7,8,12b-hexahydrobenzo [α]phenanthridine hydrochloride]", "values": [{"measurement": "melting point", "value": "190 °C (dec.)"}]}
{"smiles": "Br.Oc1ccc2c(c1O)Oc1cccc3c1C2CNC3", "note": "(centres unmarked)", "values": [{"measurement": "melting point", "value": "298 to 302 °C (dec.)"}]}
{"smiles": "CCCN1Cc2cccc3c2C(C1)c1ccc(O)c(O)c1O3", "note": "(centres unmarked) [Compound 16c, N-propyl-8,9-dihydroxy-1,2,3,11b-tetrahydrochromeno[4,3,2-de]isoquinoline]", "values": [{"measurement": "melting point", "value": "259 to 264 °C (dec.)"}]}
{"smiles": "Cc1ccc2c(c1)CN[C@H]1CCc3cc(O)c(O)cc3[C@H]21", "note": "(relative stereo) (as salt: hydrochloride) [Compound 6c, Trans-3-methyl-10,11-dihydroxy-5,6,6a,7,8, 12b-hexahydrobenzo[α]phenanthridine hydrochloride]", "values": [{"measurement": "melting point", "value": "190 °C (dec.)"}]}
